Results as given in patent publication US11674965B2, “Method for preparing and analyzing fluorescent compounds in plasma” (MediBeacon, Inc., priority 2017, dated 2023).
Blank lines part the entries; values can stand above or below the compound they belong to.

How the values were obtained:
[1] = cited from earlier work
[2] = Pharmacokinetic analysis of MB-102 in plasma of clinical study participants, iohexol co-dosed as reference marker; format: in vivo, human
Method: (§1) For the samples being analyzed by direct dilution, 10 μL of plasma sample (thawed to room temperature and mixed thoroughly) was diluted with 990 μL 1×PBS, mixed thoroughly for about 10 minutes, and centrifuged at 1000 rpm for 2 minutes. It was directly analyzed by HPLC.
Analyses were performed on a Waters Acquity UPLC H Class Chromatography System, equipped with column heater, sample heater/cooler, vacuum degasser, autosampler, fluorescence detector, and pump capable of delivering a binary gradient. An HPLC analytical column, Phenomenex Luna C18 (2), 4.6×250 mm, 5 μm, 100 Å (Phenomenex, Cat. No. 00G-4252-E0, S/N H15-133556), and a Security Guard Cartridge C18, 4×3 mm ID, 5 μm (Phenomenex, Cat. No. KJ0-4282) were used for the analysis. The Waters Empower 3 software equipped with the UPLC system was used for assay setup, analysis monitoring, and data processing. Two mobile phases, Mobile Phase A: 0.1% Trifluoroacetic acid in water (Fisher, Optima® Grade) and Mobile Phase B: 0.1% Trifluoroacetic acid in acetonitrile (Fisher Scientific, Optima® Grade) were used. […]
In support of the clinical studies to evaluate the utility of MB-102 for kidney function monitoring via transdermal fluorescence sensing, the plasma samples were prepared from blood samples collected at 0, 5, 10, 15, 30, 60, 90, 120, 180, 240, 300, 360, 480, 600, and 720 minutes of each study participant. […]

[3] = Freeze/thaw stability of MB-102 in plasma samples (three cycles, −80° C. to room temperature), HPLC with fluorescence detection; format: physicochemical, human; conditions: for % Recovered / Mean Concentration: 3 Freeze/Thaw cycles
Method: (§2) For sample preparation by direct dilution, calibration standards containing 0.4, 1.0, 2.0, 4.0, 10.0, 16.0, 40.0, 100.0, 200.0, 400.0 ng/mL and quality controls at low, mid, and high level of MB-102 were prepared in 1% human plasma in PBS on the day of the validation study or sample analysis. The MB-102 dosing solution (18.6 mg/mL) used in the clinical study was diluted 1/100 first with 1% human plasma in PBS to form a stock solution of 186 μg/mL MB-102. This stock solution is diluted further with 1% human plasma in PBS to form a calibration standard working stock of 2000 ng/mL MB-102 for preparation of calibration standards. A QC working stock at (300 ng/mL) was also prepared from the 186 μg/mL MB-102 stock by dilution with 1% plasma in PBS. The low, mid, and high levels of quality controls were prepared from this QC working stock by dilution with 1% human plasma in PBS.
as §1
(§3) Analyses were performed on a Waters Acquity UPLC H Class Chromatography System, equipped with column heater, sample heater/cooler, vacuum degasser, autosampler, fluorescence detector, and pump capable of delivering a binary gradient. An HPLC analytical column, Phenomenex Luna C18 (2), 4.6×250 mm, 5 μm, 100 Å (Phenomenex, Cat. No. 00G-4252-E0, S/N H15-133556), and a Security Guard Cartridge C18, 4×3 mm ID, 5 μm (Phenomenex, Cat. No. KJ0-4282) were used for the analysis. The Waters Empower 3 software equipped with the UPLC system was used for assay setup, analysis monitoring, and data processing. Two mobile phases, Mobile Phase A: 0.1% Trifluoroacetic acid in water (Fisher, Optima® Grade) and Mobile Phase B: 0.1% Trifluoroacetic acid in acetonitrile (Fisher Scientific, Optima® Grade) were used. The column temperature was set at 30° C., the autosampler temperature was set at 5° C., the excitation wavelength was set at 434 nm and the detection/emission wavelength was set at 556 nm. The counting rate was set at 5 point/sec; the PMT gain was set at 50; the flow cell temperature was ambient; the injection volume was 10 μL. MB-102 elutes at about 3.6 minutes using the gradient shown.
(§4) Using this HPLC method and sample preparation described herein, a validation study was carried out to determine the precision, accuracy, linearity, reproducibility, plasma and sample solution stability, freeze-thaw stability, lowest limits of quantitation, and specificity. The acceptance criterion was ±15% data deviation from normal values excepted at the lowest limit of quantitation (LLOQ) where it was set at ±20%. Samples were analyzed both in-house and at a GMP contract lab to ensure both the validity of the method and accuracy of the results.
(§5) MB-102 stability during sample handling upon long term storage of plasma samples (frozen at −80° C.) and short-term storage (bench top ambient temperature with/without light exposure, and 2-8° C.) of plasma solution was evaluated. Plasma samples were tested for three freeze/thaw cycles (−80° C. to room temperature). The stability of MB-102 in plasma solution at room temperature with/without light exposure, at 2-8° C., and at auto-sampler temperature (5° C.) was evaluated for time intervals of 24 and 48 hours.

[4] = Short-term stability of MB-102 in plasma solution (1% plasma/PBS) at 4° C. or room temperature with/without light, HPLC with fluorescence detection; format: physicochemical, human
Method: as §2, §1, §3, §4, §5

[5] = QCs stored at 4° C. for 48 hours, MB-102 3.7 ng/mL
[6] = QCs stored at 4° C. for 48 hours, MB-102 37.9 ng/mL
[7] = QCs stored at 4° C. for 48 hours, MB-102 372.6 ng/mL
[8] = QCs stored at RT with light, MB-102 3.7 ng/mL
[9] = QCs stored at RT with light, MB-102 37.9 ng/mL
[10] = QCs stored at RT with light, MB-102 372.6 ng/mL
[11] = QCs stored at RT without light, MB-102 3.7 ng/mL
[12] = QCs stored at RT without light, MB-102 37.9 ng/mL
[13] = QCs stored at RT without light, MB-102 372.6 ng/mL
[14] = Sample solution at 4° C. for 48 hours, MB-102 1.76 ng/mL
[15] = Sample solution at 4° C. for 48 hours, MB-102 8.81 ng/mL
[16] = Sample solution at 4° C. for 48 hours, MB-102 61.87 ng/mL

SMILES: CC(=O)N(CC(O)CO)c1c(I)c(C(=O)NCC(O)CO)c(I)c(C(=O)NCC(O)CO)c1I (centres unmarked) [Iohexol, iohexol]
metabolism ([1]; patient): not metabolized | route of elimination ([1]; without tubular renal secretion or reabsorption): entirely eliminated by simple glomerular filtration

clearance rate ([2]; 12 subjects, FIG. 7): varies among patients | clearance rate compared with iohexol ([2]; three subjects, iohexol co-dosed, FIGS. 8a-8c): parallel to that of iohexol | % Recovered ([3]; MB-102 1.76 ng/mL): 101.7% | Mean Concentration ([3]; MB-102 1.76 ng/mL): 1.79 ng/mL | % Recovered ([3]; MB-102 8.81 ng/mL): 100.0% | Mean Concentration ([3]; MB-102 8.81 ng/mL): 8.81 ng/mL | % Recovered ([3]; MB-102 61.87 ng/mL): 100.8% | Mean Concentration ([3]; MB-102 61.87 ng/mL): 62.34 ng/mL | stability over freeze/thaw cycles ([3]; three freeze/thaw cycles, plasma at −80° C.): very stable | % Recovered [4, 5]: 101.1% | Mean Concentration [4, 5]: 3.74 ng/mL | % Recovered [4, 6]: 99.1% | Mean Concentration [4, 6]: 37.55 ng/mL | % Recovered [4, 7]: 100.2% | Mean Concentration [4, 7]: 373.50 ng/mL | % Recovered [4, 8]: 101.6% | Mean Concentration [4, 8]: 3.76 ng/mL | % Recovered [4, 9]: 96.0% | Mean Concentration [4, 9]: 36.40 ng/mL | % Recovered [4, 10]: 97.9% | Mean Concentration [4, 10]: 364.59 ng/mL | % Recovered [4, 11]: 104.6% | Mean Concentration [4, 11]: 3.87 ng/mL | % Recovered [4, 12]: 98.0% | Mean Concentration [4, 12]: 37.15 ng/mL | % Recovered [4, 13]: 100.0% | Mean Concentration [4, 13]: 372.58 ng/mL | % Recovered [4, 14]: 99.4% | Mean Concentration [4, 14]: 1.75 ng/mL | % Recovered [4, 15]: 98.3% | Mean Concentration [4, 15]: 8.66 ng/mL | % Recovered [4, 16]: 98.3% | Mean Concentration [4, 16]: 60.84 ng/mL | degradation of MB-102 ([4]; solution stored at room temperature with light for 48 hours): 1-2% | sample solution stability ([4]; stored at 4° C. for up to 48 hours): very stable | sample solution stability ([4]; stored at room temperature without light for up to 48 hours): very stable
SMILES: Nc1nc(C(=O)N[C@H](CO)C(=O)O)c(N)nc1C(=O)N[C@H](CO)C(=O)O [MB-102, (2R,2′R)-2,2′-((3,6-diaminopyrazine-2,5-dicarbonyl)bis(azanediyl))bis(3-hydroxypropanoic acid)]
